Measurements taken from patent US8557839B2, “Fused ring azadecalin glucocorticoid receptor modulators” (Corcept Therapeutics, Inc., priority 2004, dated 2013).

Assays:
[1] = molecular target: T1, glucocorticoid receptors (Homo sapiens, UniProt P04150); experiment: GR functional assay using SW1353/MMTV-5 cells (dexamethasone-induced luciferase); assay type: cell-based; design: contains endogenous glucocorticoid receptors; endogenous in cells; host or cells: SW1353/MMTV-5 (human chondrosarcoma, stably carrying the pMAMneo-Luc reporter)
T1 sequence (P04150 1-777): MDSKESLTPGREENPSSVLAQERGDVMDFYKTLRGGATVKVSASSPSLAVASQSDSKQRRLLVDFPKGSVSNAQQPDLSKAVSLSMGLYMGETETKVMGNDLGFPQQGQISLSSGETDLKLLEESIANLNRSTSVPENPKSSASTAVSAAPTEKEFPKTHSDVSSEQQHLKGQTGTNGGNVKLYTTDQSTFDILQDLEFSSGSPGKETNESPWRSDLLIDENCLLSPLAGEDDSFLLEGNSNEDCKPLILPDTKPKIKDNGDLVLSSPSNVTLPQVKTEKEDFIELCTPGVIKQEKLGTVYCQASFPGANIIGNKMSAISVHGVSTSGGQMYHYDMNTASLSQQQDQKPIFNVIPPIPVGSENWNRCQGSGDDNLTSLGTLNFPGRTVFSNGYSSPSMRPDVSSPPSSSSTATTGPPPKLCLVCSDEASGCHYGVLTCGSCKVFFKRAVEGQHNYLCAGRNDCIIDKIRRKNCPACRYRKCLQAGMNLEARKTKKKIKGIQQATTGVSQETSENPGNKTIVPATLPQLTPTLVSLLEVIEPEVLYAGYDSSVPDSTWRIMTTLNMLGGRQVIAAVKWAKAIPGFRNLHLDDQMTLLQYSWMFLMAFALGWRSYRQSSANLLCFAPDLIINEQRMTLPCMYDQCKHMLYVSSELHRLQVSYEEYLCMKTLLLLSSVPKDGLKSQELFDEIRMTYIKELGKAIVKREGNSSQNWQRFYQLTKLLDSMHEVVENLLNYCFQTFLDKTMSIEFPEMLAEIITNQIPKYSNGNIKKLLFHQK
Method: SW1353/MMTV-5 is an adherent human chondrosarcoma cell line that contains endogenous glucocorticoid receptors. It was transfected with a plasmid (pMAMneo-Luc) encoding firefly luciferase located behind a glucocorticoid-responsive element (GRE) derived from a viral promoter (long terminal repeat of mouse mammary tumor virus). A stable cell line SW1353/MMTV-5 was selected with geneticin, which was required to maintain this plasmid.
SW1353/MMTV-5 cells were distributed in 96-well plates and incubated in medium (without geneticin) for 24 hrs (in the absence of CO2).

[2] = molecular target: T1, glucocorticoid receptors; experiment: Glucocorticoid receptor binding displacement assay with 3H-dexamethasone; design: This GR was a full-length steroid hormone receptor; host or cells: recombinant baculovirus-infected insect cells
Method: The source of the receptor was recombinant baculovirus-infected insect cells. This GR was a full-length steroid hormone receptor likely to be associated with heat-shock and other endogenous proteins.
For the Primary Screen, test compounds were tested at 1 μM in duplicate. These compounds were diluted from 10 mM stock in 100% DMSO. After dilution to 100 μM, 5 μl were added to 245 μl assay buffer to obtained 2 μM compound and 2% DMSO.
For the IC50 determinations, test compounds were tested at 6 concentrations in duplicate (concentration range depends on % inhibition binding that was obtained in the Primary Screen). Test compounds were diluted from 10 mM stock in 100% DMSO. The tested solutions were prepared at 2× final assay concentration in 2% DMSO/assay buffer.
All reagents and the assay plate were kept on ice during the addition of reagents. […] After the additions, the incubation mixture was mixed and incubated for 2.5 hrs at 4° C.
After 2.5 hrs incubation, unbound counts were removed with dextran coated charcoal (DCC) as follows: 25 μl of DCC solution (10% DCC in assay buffer) was added to all wells and mixed (total volume 225 μl). The plate was centrifuged at 4000 rpm for 10 minutes at 4° C. 75 μl of the supernatants (i.e.⅓ of total volume) was carefully pipetted into an optiplate. 200 μl of scintillation cocktail were added (Microscint-40, Packard Bioscience. B.V.). The plate was vigorously shaken for approx. 10 minutes and counted on Topcount.
The IC50 values were converted to Ki (the inhibition constant) using the Cheng-Prusoff equation.
Reagents: Assay buffer: 10 mM potassium phosphate buffer pH 7.6 containing 5 mM DTT, 10 mM sodium molybdate, 100 μM EDTA and 0.1% BSA.

[3] = Ki from IC50 by Cheng-Prusoff, 2.5 nM 3H-dexamethasone, read-out: GR Binding

Row | Compound | Ki ([1]; read-out: GR Functional) | Ki [2, 3] | Ki [1] | Ki [2]
1 | CC(C)(C)c1ccc(S(=O)(=O)N2CCC3=Cc4c(cnn4-c4ccc(F)cc4)C[C@]3(Cc3ccccc3)C2)cc1 | < 10 nM | < 10 nM | – | –
2 | COc1ccc(-n2ncc3c2C=C2CCN(S(=O)(=O)c4ccc(C(C)(C)C)cc4)C[C@@]2(Cc2ccccc2)C3)cc1 | 10 to 100 nM | < 10 nM | – | –
3 | Cc1ccc(-n2ncc3c2C=C2CCN(S(=O)(=O)c4ccc(C(C)(C)C)cc4)C[C@@]2(Cc2ccccc2)C3)cc1 | > 100 nM | < 10 nM | – | –
4 | CC(C)(C)c1ccc(S(=O)(=O)N2CCC3=Cc4c(cnn4-c4ccccn4)C[C@]3(C)C2)cc1 | – | 10 to 100 nM | – | –
5 | O=S(=O)(c1ccccc1)N1CCC2=Cc3c(cnn3-c3ccc(F)cc3)C[C@]2(CO)C1 | – | 10 to 100 nM | – | –
6 | COCCCOC[C@]12Cc3cnn(-c4ccc(F)cc4)c3C=C1CCN(S(=O)(=O)c1ccc(C(C)(C)C)cc1)C2 | < 10 nM | < 10 nM | – | –
7 | CC(C)(C)c1ccc(S(=O)(=O)N2CCC3=Cc4c(cnn4-c4ccc(F)cc4)C[C@]3(COCCC#N)C2)cc1 | < 10 nM | < 10 nM | – | –
8 | CC(C)(C)c1ccc(S(=O)(=O)N2CCC3=Cc4c(cnn4-c4ccc(F)cc4)C[C@]3(COCCN3CCOCC3)C2)cc1 | > 100 nM | 10 to 100 nM | – | –
9 | CC(C)(C)c1ccc(S(=O)(=O)N2CCC3=Cc4c(cnn4-c4ccc(F)cc4)C[C@]3(COCCN3CCCCC3)C2)cc1 | 10 to 100 nM | < 10 nM | – | –
10 | COCCOC[C@]12Cc3cnn(-c4ccc(F)cc4)c3C=C1CCN(S(=O)(=O)c1ccc(F)cc1)C2 | < 10 nM | < 10 nM | – | –
11 | COC[C@]12Cc3cnn(-c4ccc(F)cc4)c3C=C1CCN(S(=O)(=O)c1ccc(F)cc1)C2 | 10 to 100 nM | < 10 nM | – | –
12 | COC[C@]12Cc3cnn(-c4ccc(F)cc4)c3C=C1CCN(S(=O)(=O)c1ccc(C)cc1)C2 | < 10 nM | < 10 nM | – | –
13 | COCCOC[C@]12Cc3cnn(-c4ccc(F)cc4)c3C=C1CCN(S(=O)(=O)c1ccccc1)C2 | < 10 nM | < 10 nM | – | –
14 | COC[C@]12Cc3cnn(-c4ccc(F)cc4)c3C=C1CCN(S(=O)(=O)c1ccccc1)C2 | 10 to 100 nM | < 10 nM | – | –
15 | COCCOC[C@]12Cc3cnn(-c4ccc(F)cc4)c3C=C1CCN(S(=O)(=O)N(C)C)C2 | > 100 nM | > 100 nM | – | –
16 | COC[C@]12Cc3cnn(-c4ccc(F)cc4)c3C=C1CCN(S(=O)(=O)N(C)C)C2 | > 100 nM | 10 to 100 nM | – | –
17 | CCCCS(=O)(=O)N1CCC2=Cc3c(cnn3-c3ccc(F)cc3)C[C@]2(COCCOC)C1 | 10 to 100 nM | < 10 nM | – | –
18 | COCCOC[C@]12Cc3cnn(C)c3C=C1CCN(S(=O)(=O)c1ccc(C(C)(C)C)cc1)C2 | > 100 nM | 10 to 100 nM | – | –
19 | CCCCn1ncc2c1C=C1CCN(S(=O)(=O)c3ccc(C(C)(C)C)cc3)C[C@@]1(COCCOC)C2 | 10 to 100 nM | < 10 nM | – | –
20 | COCCOC[C@]12Cc3cnn(C(C)C)c3C=C1CCN(S(=O)(=O)c1ccc(C(C)(C)C)cc1)C2 | 10 to 100 nM | < 10 nM | – | –
21 | COC[C@]12Cc3cnn(C(C)C)c3C=C1CCN(S(=O)(=O)c1ccc(C(C)(C)C)cc1)C2 | > 100 nM | 10 to 100 nM | – | –

Row | Compound | Ki ([1]; read-out: GR Functional) | Ki [2, 3] | Ki [1] | Ki [2]
22 | CCCCn1ncc2c1C=C1CCN(S(=O)(=O)c3ccc(C)cc3)C[C@@]1(COC)C2 | > 100 nM | 10 to 100 nM | – | –
23 | CC(C)(C)c1ccc(S(=O)(=O)N2CCC3=Cc4c(cnn4-c4ccc(F)cc4)C[C@]3(CN3CCC3)C2)cc1 | – | – | 10 to 100 nM | < 10 nM
24 | C=CCNC[C@]12Cc3cnn(-c4ccc(F)cc4)c3C=C1CCN(S(=O)(=O)c1ccc(C(C)(C)C)cc1)C2 | 10 to 100 nM | < 10 nM | – | –
25 | CC(C)(C)c1ccc(S(=O)(=O)N2CCC3=Cc4c(cnn4-c4ccc(F)cc4)C[C@]3(CNCCO)C2)cc1 | 10 to 100 nM | < 10 nM | – | –
26 | Cc1ccc(S(=O)(=O)N2CCC3=Cc4c(cnn4-c4ccc(F)cc4)C[C@]3(CN(C)C)C2)cc1 | 10 to 100 nM | < 10 nM | – | –
27 | Cc1ccc(S(=O)(=O)N2CCC3=Cc4c(cnn4-c4ccc(F)cc4)C[C@]3(CN3CCCC3)C2)cc1 | < 10 nM | < 10 nM | – | –
28 | CN(C)C[C@]12Cc3cnn(-c4ccc(F)cc4)c3C=C1CCN(S(=O)(=O)c1ccc(F)cc1)C2 | 10 to 100 nM | < 10 nM | – | –
29 | O=S(=O)(c1ccc(F)cc1)N1CCC2=Cc3c(cnn3-c3ccc(F)cc3)C[C@]2(CN2CCCC2)C1 | < 10 nM | < 10 nM | – | –
30 | O=S(=O)(c1ccccc1)N1CCC2=Cc3c(cnn3-c3ccc(F)cc3)C[C@]2(CN2CCCC2)C1 | < 10 nM | < 10 nM | – | –
31 | CN(C)C[C@]12Cc3cnn(-c4ccc(F)cc4)c3C=C1CCN(S(=O)(=O)c1ccccc1)C2 | 10 to 100 nM | < 10 nM | – | –
32 | CN(CCO)C[C@]12Cc3cnn(-c4ccc(F)cc4)c3C=C1CCN(S(=O)(=O)c1ccc(C(C)(C)C)cc1)C2 | < 10 nM | < 10 nM | – | –
33 | CCCCS(=O)(=O)N1CCC2=Cc3c(cnn3-c3ccc(F)cc3)C[C@]2(CN2CCOCC2)C1 | > 100 nM | 10 to 100 nM | – | –
34 | O=S(=O)(c1ccccc1)N1CCC2=Cc3c(cnn3-c3ccc(F)cc3)C[C@]2(CN2CCCCC2)C1 | – | – | 10 to 100 nM | < 10 nM
35 | CCCCn1ncc2c1C=C1CCN(S(=O)(=O)c3ccc(C)cc3)C[C@@]1(CN1CCCCC1)C2 | – | 10 to 100 nM | – | –
36 | O=S(=O)(c1ccccn1)N1CCC2=Cc3c(cnn3-c3ccc(F)cc3)C[C@]2(CN2CCOCC2)C1 | – | < 10 nM | – | –
37 | CC(C)(C)c1ccc(S(=O)(=O)N2CCC3=Cc4c(cnn4-c4ccc(F)cc4)CC3(Cc3ccc(F)cc3)C2)cc1 (centres unmarked) | – | – | 10 to 100 nM | < 10 nM
38 | Fc1ccc(CC23Cc4cnn(-c5ccc(F)cc5)c4C=C2CCN(Cc2cccnc2)C3)cc1 (centres unmarked) | – | – | > 100 nM | 10 to 100 nM
39 | O=S(=O)(N1CCOCC1)N1CCC2=Cc3c(cnn3-c3ccc(F)cc3)CC2(Cc2ccc(F)cc2)C1 (centres unmarked) | – | – | > 100 nM | 10 to 100 nM
40 | CC(C)(C)c1ccc(S(=O)(=O)N2CCC3=Cc4c(cnn4-c4ccc(C(F)(F)F)cc4)CC3(Cc3ccccc3)C2)cc1 (centres unmarked) [drawing 238] | – | 10 to 100 nM | – | –
41 | CC(C)(C)c1ccc(S(=O)(=O)N2CCC3=Cc4c(cnn4-c4ccc(C(F)(F)F)cc4)CC3(Cc3ccccc3)C2)cc1 (centres unmarked) [drawing 254] | – | 10 to 100 nM | – | –
42 | CC(C)(C)c1ccc(S(=O)(=O)N2CCC3=Cc4c(cnn4Cc4cccc(O)c4)CC3(Cc3ccccc3)C2)cc1 (centres unmarked) [drawing 257] | – | > 100 nM | – | –
